Assay results taken from US9895370B2, “Pharmaceutical composition for preventing or treating of cirrhosis of liver comprising G protein coupled receptor 119 ligand as an active ingredient” (DONGGUK UNIVERSITY INDUSTRY—ACADEMIC COOPERATION FOUNDATION, priority 2015, dated 2018).

Tested on: human HSC line LX-2
Experiment: TGFβ1-inducible collagen I and TGFβ expression in LX-2
Type: cell-based
Details: LX-2 treated with TGFβ1; FIGS. 2c, 2d
Procedure: A human HSC line (LX-2, Milipore, U.S.A.) was plated in a 6-well plate, and grown to confluency in DMEM supplemented with 1% penicillin-streptomycin (Hyclone, U.S.A.) and 2% fetal bovine serum (Hyclone, U.S.A.) at 37° C. in a 5% CO2 incubator. For a further experiment, the confluent HSC line was incubated in an FBS-free medium, instead of the 2% FBS-added medium.
Total RNA ([…]) extracted from cells using Trizol and a Maxime RT PreMix Kit (iNtRON Biotechnology, Gyeonggi-do, Korea) was used to obtain cDNA. For RT-PCR, a target gene was amplified by PCR using a Maxime™ PCR PreMix Kit according to the manufacturer's instructions, and subjected to electrophoresis in a 2% agrose gel, thereby identifying the amplified PCR product.
Meanwhile, for real-time RT-qPCR, the synthesized cDNA was assessed in a CFX Connect™ Real-Time PCR Detection System (Bio-Rad Laboratories, CA, USA) instrument using a SYBR green dye (Bio-Rad). The CP value of the gene was calibrated with the CP value of S 18r gene. Also, through a melting curve analysis, specificity of the amplified PCR product was confirmed.
Sodium dodecylsulfate-polyacrylamide gel electrophoresis (SDS-PAGE) was performed using a gel electrophoresis device (Mighty Small SE 250, Hoefer Scientific Instruments, San Francisco) according to the method established by the inventors. A lysed cell fraction was diluted with a sample dilution buffer [63 mM Tris (pH. 6.8), 10% glycerol, 2% SDS, 0.0013% bromophenol blue, 5% β-mercaptoethanol], and subjected to electrophoresis in an electrode buffer (15 g Tris, 72 g glycerin and 5 g SDS contained in an 1 L solution) using a 8-12% gel. After electrophoresis, the gel was transferred to a nitrocellulose membrane to transfer proteins using an electrophoresis device for transfer in a transfer buffer (25 mM Tris, 192 mM glycerin, 20% v/v methanol (pH. 8.3)] at 40 mA for 3 hours. The nitrocellulose membrane was reacted with first antibodies, reacted with horseradish peroxidase-conjugated goat anti-rabbit IgG and horseradish peroxidase-conjugated goat anti-mouse IgG as secondary antibodies for 1 hour, and visualized using an ECL chemiluminescence system (Amersham, Gaithesberg, Mass.).
A critical cytokine having an influence on the induction of liver fibrosis, TGFβ1, is a potent fibrosis stimulation factor for HSCs. To examine the expression of a liver fibrosis-inducing factor which was increased when the human liver cell line LX-2, cultured by method D was treated with TGFβ1, changes in expression according to the treatment with GPR119 ligands (MBX-2982, GSK1292263) were assessed by the methods described in G and H, thereby observing the effect of the GPR119 ligands.

Which “expression of TGFβ1-inducible TGFβ” value does the source give for `CC(C)c1noc(N2CCC(COc3ccc(-c4ccc(S(C)(=O)=O)cc4)nc3)CC2)n1` [GSK1292263, 3-isopropyl-5-(4-(((6-(4-(methylsulfonyl)phenyl)pyridin-3-yl)oxy)methyl)piperidin-1-yl)-1,2,4-oxadiazole] here?
Its value is “inhibited”.

And the “expression of TGFβ1-inducible collagen I” value?
The value was “inhibited”.
